From patent US7632859B2, “Iontophoretic delivery of rotigotine for the treatment of Parkinson's disease” (Schwarz Pharma AG, priority 2002, dated 2009)

Experiments:
[1] = relative to therapeutic concentration range of 1.4 to 10.7 ng/ml; cited from earlier work
[2] = In vitro iontophoretic flux of rotigotine, three-chamber flow-through diffusion cells; type: in vitro ADME, human; settings: donor pH 5, 500 μA/cm^2, 20° C.
Protocol: In vitro iontophoretic studies for the administration of rotigotine were carried out with three-chamber flow-through diffusion cells as described by […] al. ([…]. Boddé, “Validation and testing of a new iontophoretic continuous flow through transport cell”, J. Control. Release (1998), 51, […]). On both sides of the acceptor compartment human stratum corneum (SC) was situated. A dialysis membrane having a 5.000 Da cut-off was used as supporting membrane. The volume of the outer chambers was approximately 2 ml, while the volume of the acceptor compartment was 0.54 ml. The two outer chambers contained the silver plate (anode) or silver/silver chloride (cathode) driver […]. The donor phase consisted of rotigotine solution buffered with 5 mM citrate buffer (2.1 mM sodium citrate dihydrate and 2.9 mM citric acid). Using this set-up, a pH in the donor chamber of 5, a current density of 500 μA/cm^2, a pH in the acceptor chamber of 7.4, a temperature of 20° C. and an NaCl concentration in the donor chamber of 70 mmol/l, the flux of rotigotine was measured for different drug concentrations in the donor phase. Using a similar procedure as in Example 1 and a concentration of rotigotine of 1.4 mg/ml (3.98 mM), a pH in the donor chamber of 5, a current density of 500 μA/cm^2, a pH in the acceptor chamber of 7.4 and a temperature of 20° C., but substituting triethylammonium chloride (TEACl) or tributylammonium chloride (TBACl) for NaCl, the influence of the different cations on the flux was evaluated. The concentration of the chloride salts in the donor solution was 70 mmol/l. Using a similar procedure and the same parameters as in Example 2, the influence of reducing the pH in the acceptor chamber from 7.4 to 6.2 was evaluated for different chloride salts. The concentration of the chloride salts in the donor solution was 70 mmol/l.

[3] = Solubility of rotigotine in the donor phase; type: physicochemical
From the text: To provide for an optimal flux across human stratum corneum it was also necessary to provide for a sufficient concentration of Cl^− ions for the electrode reaction in the donor phase.

[4] = relative to therapeutic range; cited from earlier work

CN1CCc2cccc3c2[C@H]1Cc1ccc(O)c(O)c1-3 [R-apomorphine, (R)-5,6,6a,7-tetrahydro-6-methyl-4H-dibenzoquinoline-11,12-diol]
concentrations obtained by iontophoretic administration [1]: lower end of the therapeutic concentration range

CCCN(CCc1cccs1)[C@H]1CCc2c(O)cccc2C1 [Rotigotine, (−)-5,6,7,8-tetrahydro-6-[propyl-[2-(2-thienyl)ethyl]-amino]-1-naphthalenol]
Flux Rotigotine ([2]; co-ions source NaCl 70 mmol/l, rotigotine 1.4 mg/ml (3.98 mM), acceptor pH 7.4): 53.2 nmol/cm^2/h
Flux Rotigotine ([2]; co-ions source NaCl 70 mmol/l, rotigotine 1.4 mg/ml, acceptor pH 6.2): 58.9 nmol/cm^2/h
Flux Rotigotine ([2]; co-ions source TBACl 70 mmol/l, rotigotine 1.4 mg/ml (3.98 mM), acceptor pH 7.4): 62.0 nmol/cm^2/h
Flux Rotigotine ([2]; co-ions source TBACl 70 mmol/l, rotigotine 1.4 mg/ml, acceptor pH 6.2): 76.5 nmol/cm^2/h
Flux Rotigotine ([2]; co-ions source TEACl 70 mmol/l, rotigotine 1.4 mg/ml (3.98 mM), acceptor pH 7.4): 72.8 nmol/cm^2/h
Flux Rotigotine ([2]; co-ions source TEACl 70 mmol/l, rotigotine 1.4 mg/ml, acceptor pH 6.2): 43.2 nmol/cm^2/h
Flux Rotigotine ([2]; rotigotine donor conc. 0.5 mg/ml (1.4 mM), NaCl 70 mmol/l, acceptor pH 7.4): 22.9 nmol/cm^2/h
Flux Rotigotine ([2]; rotigotine donor conc. 1.0 mg/ml (2.8 mM), NaCl 70 mmol/l, acceptor pH 7.4): 30.2 nmol/cm^2/h
Flux Rotigotine ([2]; rotigotine donor conc. 1.4 mg/ml (3.98 mM), NaCl 70 mmol/l, acceptor pH 7.4): 53.2 nmol/cm^2/h
solubility of rotigotine ([3]; effect of addition of chloride salts): reduces the solubility
solubility of rotigotine ([3]; effect of increasing pH): decreases when the pH is increased

CCCN(CCC)CCc1cccc2c1CC(=O)N2 [ropinirole]
fluxes obtained by iontophoretic administration [4]: lower end of the therapeutic range
